Laboratory results: patent publication US10981894B2, “Melanocortin subtype-2 receptor (MC2R) antagonists and uses thereof” (Crinetics Pharmaceuticals, Inc., priority 2018, dated 2021)
pKi: −log10 of the molar value.

Target: hMC2 receptor (Homo sapiens, UniProt Q01718)
Assay: hMC2 membrane binding assay ([125I]ACTH (1-39) Tyr23, SPA)
Design: scale not given here
Conditions: crude hMC2R membranes from CRE-bla-CHO-K1 cells expressing hMC2 receptor and hMRAP; [125I]ACTH (1-39) Tyr23 0.2 nM; 1.5 hours at room temperature; read-out: MC2R binding potency
Protocol: Crude membrane fractions are prepared from CRE-bla-CHO-K1 cells stably expressing hMC2 receptor and hMRAP accessory protein (Thermo Fisher). The cells are grown to 85-100% confluence on standard tissue culture dishes in GlutaMax DMEM growth media (Gibco) with following additives: 10% dialyzed FBS (Gemini), 0.1 mM NEAA (Gibco), 25 mM HEPES (Gibco), 5 μg/mL blasticidin (Goldbio), 100 μg/mL zeocin (Invitrogen), 600 μg/mL hygromycin (Goldbio). To prepare membranes, cells are scraped and collected in 1× Dulbecco's phosphate buffered saline (Corning) and then pelleted at 1000 RPM's. The cell pellet is reconstituted in membrane preparation buffer (20 mM HEPES, 6 mM MgCl2 and 1 mM EGTA, protease inhibitor tablets (Pierce) adjusted to pH 7.4), homogenized using a dounce homogenizer, and the resulting membrane fraction is pelleted by centrifugation at 12,000 RPM's. The membrane pellet is resuspended in membrane preparation buffer, snap freezed and stored at −80° C. for later use.
Binding Assay for hMC2 Antagonists Protocol:
The hMC2 membrane binding assay utilizes the following components: radiolabel [^125I]ACTH (1-39) Tyr23 (PerkinElmer), wheatgerm agglutinin coated PVT SPA beads (PerkinElmer), crude hMC2R membranes, and compounds. Briefly hMC2R membranes are incubated with SPA beads in binding assay buffer (50 mM HEPES, 5 mM MgCl2, 1 mM CaCl2, 0.2% BSA, protease inhibitor tablets (Pierce) adjusted to pH7.4) prior to assay initiation. A dose response of compound (the final concentration of compound are typically 0-10,000 nM), SPA membranes, and [^125I]ACTH (1-39) Tyr23 at a final concentration of 0.2 nM is plated in a 96-well assay plate and allowed to incubate 1.5 hours at room temperature. Assay plates are read using a Top Count NXT and Ki values for compounds are determined using a GraphPad Prism 6 non-linear regression analysis.

hMC2 receptor, sequence (Q01718 whole entry): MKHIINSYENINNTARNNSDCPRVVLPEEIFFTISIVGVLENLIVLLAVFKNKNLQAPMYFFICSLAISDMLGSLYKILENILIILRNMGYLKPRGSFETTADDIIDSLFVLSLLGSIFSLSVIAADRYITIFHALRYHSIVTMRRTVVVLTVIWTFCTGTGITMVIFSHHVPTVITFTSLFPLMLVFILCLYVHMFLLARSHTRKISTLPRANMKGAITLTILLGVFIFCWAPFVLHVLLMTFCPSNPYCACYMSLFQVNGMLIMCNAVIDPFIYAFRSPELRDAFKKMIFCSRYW
hMC2 receptor, sequence (Q8TCY5 whole entry partner): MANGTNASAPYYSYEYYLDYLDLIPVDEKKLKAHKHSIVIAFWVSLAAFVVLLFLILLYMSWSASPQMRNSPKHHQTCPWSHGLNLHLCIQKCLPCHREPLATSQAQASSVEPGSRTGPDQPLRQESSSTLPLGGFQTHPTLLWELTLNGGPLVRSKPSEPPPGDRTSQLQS

Structure (SMILES) | pKi
CCOc1ncccc1-c1ccc(N2CCN(C(=O)c3ccc(Cl)cc3N3CCC(N)CC3)C[C@H]2CC)c(C(=O)NCCN)c1 [Compound 1-52, N-(2-aminoethyl)-2-[(2R)-4-[2-(4-aminopiperidin-1-yl)-4-chlorobenzoyl]-2-ethylpiperazin-1-yl]-5-(2-ethoxypyridin-3-yl)benzamide] | > 8.00
CCOc1ncccc1-c1ccc(N2CCN(C(=O)c3ccc(Cl)cc3OC)C[C@H]2CC)c(C(=O)NCCN)c1 [Compound 1-54, N-(2-aminoethyl)-2-[(2R)-4-(4-chloro-2-methoxybenzoyl)-2-ethylpiperazin-1-yl]-5-(2-ethoxypyridin-3-yl)benzamide] | > 8.00
CCOc1ncccc1-c1ccc(N2CCN(C(=O)c3ccc(Cl)cc3N3CC[C@H](N)C3)C[C@H]2CC)c(C(=O)NCCN)c1 [Compound 1-57, N-(2-aminoethyl)-2-[(2R)-4-{2-[(3S)-3-aminopyrrolidin-1-yl]-4-chlorobenzoyl}-2-ethylpiperazin-1-yl]-5-(2-ethoxypyridin-3-yl)benzamide] | > 8.00
CCOc1ncccc1-c1ccc(N2CCN(C(=O)c3ccc(F)cc3C(F)(F)F)C[C@H]2CC)c(C(=O)NCCN)c1 [Compound 1-58, N-(2-aminoethyl)-5-(2-ethoxypyridin-3-yl)-2-[(2R)-2-ethyl-4-[4-fluoro-2-(trifluoromethyl)benzoyl]piperazin-1-yl]benzamide] | > 8.00
CCOc1ncccc1-c1ccc(N2CCN(C(=O)c3ccc(C)cc3C(F)(F)F)C[C@H]2CC)c(C(=O)NCCN)c1 [Compound 1-59, N-(2-aminoethyl)-5-(2-ethoxypyridin-3-yl)-2-[(2R)-2-ethyl-4-[4-methyl-2-(trifluoromethyl)benzoyl]piperazin-1-yl]benzamide] | > 8.00
CCOc1ncccc1-c1ccc(N2CCN(C(=O)c3ccc(C)cc3C)C[C@H]2CC)c(C(=O)NCCN)c1 [Compound 1-60, N-(2-aminoethyl)-2-[(2R)-4-(2,4-dimethylbenzoyl)-2-ethylpiperazin-1-yl]-5-(2-ethoxypyridin-3-yl)benzamide] | > 8.00
CCOc1ncccc1-c1ccc(N2CCN(C(=O)c3ccccc3C(F)(F)F)C[C@H]2CC)c(C(=O)NCCN)c1 [Compound 1-62, N-(2-aminoethyl)-5-(2-ethoxypyridin-3-yl)-2-[(2R)-2-ethyl-4-[2-(trifluoromethyl)benzoyl]piperazin-1-yl]benzamide] | > 8.00
CCOc1ncccc1-c1ccc(N2CCN(C(=O)c3ccc(C)cc3N3CC[C@H](NC)C3)C[C@H]2CC)c(C(=O)NCCN)c1 [Compound 1-67, N-(2-aminoethyl)-5-(2-ethoxypyridin-3-yl)-2-[(2R)-2-ethyl-4-{4-methyl-2-[(3S)-3-(methylamino)pyrrolidin-1-yl]benzoyl}piperazin-1-yl]benzamide] | > 8.00
CCOc1ncccc1-c1ccc(N2CCN(C(=O)c3ccc(C)cc3N3CC[C@H](N(C)C)C3)C[C@H]2CC)c(C(=O)NCCN)c1 [Compound 1-68, N-(2-aminoethyl)-2-[(2R)-4-{2-[(3S)-3-(dimethylamino)pyrrolidin-1-yl]-4-methylbenzoyl}-2-ethylpiperazin-1-yl]-5-(2-ethoxypyridin-3-yl)benzamide] | > 8.00
CCOc1ncccc1-c1ccc(N2CCN(C(=O)c3ccc(Cl)cc3C(F)(F)F)C[C@H]2CC)c(C(=O)NCCN)c1F [Compound 1-69, N-(2-aminoethyl)-6-[(2R)-4-[4-chloro-2-(trifluoromethyl)benzoyl]-2-ethylpiperazin-1-yl]-3-(2-ethoxypyridin-3-yl)-2-fluorobenzamide] | > 8.00
CC[C@@H]1CN(C(=O)c2ccc(Cl)cc2C(F)(F)F)CCN1c1ccc(-c2cccnc2OC)cc1C(=O)NCCN [Compound 1-71, N-(2-aminoethyl)-2-[(2R)-4-[4-chloro-2-(trifluoromethyl)benzoyl]-2-ethylpiperazin-1-yl]-5-(2-methoxypyridin-3-yl)benzamide] | > 8.00
CCOc1ncccc1-c1ccc(N2CCN(C(=O)c3ccc(Cl)cc3C(F)(F)F)C[C@H]2CC)c(C(=O)N[C@@H]2CCNC2)c1F [Compound 1-72, 6-[(2R)-4-[4-chloro-2-(trifluoromethyl)benzoyl]-2-ethylpiperazin-1-yl]-3-(2-ethoxypyridin-3-yl)-2-fluoro-N-[(3R)-pyrrolidin-3-yl]benzamide] | > 8.00
CCOc1ncccc1-c1ccc(N2CCN(C(=O)c3ccc(F)cc3Cl)C[C@H]2CC)c(C(=O)N[C@@H]2CCNC2)c1F [Compound 1-73, 6-[(2R)-4-(2-chloro-4-fluorobenzoyl)-2-ethylpiperazin-1-yl]-3-(2-ethoxypyridin-3-yl)-2-fluoro-N-[(3R)-pyrrolidin-3-yl]benzamide] | > 8.00
CCOc1ncccc1-c1ccc(N2CCN(C(=O)c3ccc(C(F)(F)F)nc3N(C)C)C[C@H]2CC)c(C(=O)NCCN)c1 [Compound 1-76, N-(2-aminoethyl)-2-[(2R)-4-[2-(dimethylamino)-6-(trifluoromethyl)pyridine-3-carbonyl]-2-ethylpiperazin-1-yl]-5-(2-ethoxypyridin-3-yl)benzamide] | > 8.00
CCOc1ncccc1-c1ccc(N2CCN(C(=O)c3ccc(F)cc3Cl)C[C@H]2CC)c(C(=O)N[C@@H]2CCNC2)c1 [Compound 1-82, 2-[(2R)-4-(2-chloro-4-fluorobenzoyl)-2-ethylpiperazin-1-yl]-5-(2-ethoxypyridin-3-yl)-N-[(3R)-pyrrolidin-3-yl]benzamide] | > 8.00
CCOc1ncccc1-c1ccc(N2CCN(C(=O)c3ccc(Cl)cc3C(F)(F)F)C[C@H]2CC)c(C(=O)NCCc2cnc[nH]2)c1 [Compound 1-84, 2-[(2R)-4-[4-chloro-2-(trifluoromethyl)benzoyl]-2-ethylpiperazin-1-yl]-5-(2-ethoxypyridin-3-yl)-N-[2-(1H-imidazol-5-yl)ethyl]benzamide] | > 8.00
CCOc1ncccc1-c1ccc(N2CCN(C(=O)c3ccc(Cl)cc3C)C[C@H]2CC)c(C(=O)NCCN)c1 [Compound 1-87, N-(2-aminoethyl)-2-[(2R)-4-(4-chloro-2-methylbenzoyl)-2-ethylpiperazin-1-yl]-5-(2-ethoxypyridin-3-yl)benzamide] | > 8.00
CCOc1ncccc1-c1ccc(N2CCN(C(=O)c3ccc(C4CC4)cc3C)C[C@H]2CC)c(C(=O)NCCN)c1 [Compound 1-88, N-(2-aminoethyl)-2-[(2R)-4-(4-cyclopropyl-2-methylbenzoyl)-2-ethylpiperazin-1-yl]-5-(2-ethoxypyridin-3-yl)benzamide] | > 8.00
CCOc1ncccc1-c1ccc(N2CCN(C(=O)c3ccc(Cl)cc3N3CCNCC3)C[C@H]2CC)c(C(=O)N[C@@H]2CCNC2)c1 [Compound 1-90, 2-[(2R)-4-[4-chloro-2-(piperazin-1-yl)benzoyl]-2-ethylpiperazin-1-yl]-5-(2-ethoxypyridin-3-yl)-N-[(3R)-pyrrolidin-3-yl]benzamide] | > 8.00
CCOc1ncccc1-c1ccc(N2CCN(C(=O)c3ccc(Cl)cc3N(C)C)C[C@H]2CC)c(C(=O)N[C@@H]2CCNC2)c1 [Compound 1-91, 2-[(2R)-4-[4-chloro-2-(dimethylamino)benzoyl]-2-ethylpiperazin-1-yl]-5-(2-ethoxypyridin-3-yl)-N-[(3R)-pyrrolidin-3-yl]benzamide] | > 8.00
CCOc1ncccc1-c1ccc(N2CCN(C(=O)c3ccc(Cl)cc3C(F)(F)F)C[C@H]2CC)c(C(=O)N[C@H]2CCNC2)c1 [Compound 1-92, 2-[(2R)-4-[4-chloro-2-(trifluoromethyl)benzoyl]-2-ethylpiperazin-1-yl]-5-(2-ethoxypyridin-3-yl)-N-[(3S)-pyrrolidin-3-yl]benzamide] | > 8.00
CCOc1ncccc1-c1ccc(N2CCN(C(=O)c3ccc(Cl)cc3C(F)(F)F)C[C@H]2CC)c(C(=O)NCCc2ncc[nH]2)c1 [Compound 1-93, 2-[(2R)-4-[4-chloro-2-(trifluoromethyl)benzoyl]-2-ethylpiperazin-1-yl]-5-(2-ethoxypyridin-3-yl)-N-[2-(1H-imidazol-2-yl)ethyl]benzamide] | > 8.00
CCOc1ncccc1-c1ccc(N2CCN(C(=O)c3ccc(C)cc3N3CC[C@H](NC)C3)C[C@H]2CC)c(C(=O)N[C@@H]2CCNC2)c1 [Compound 1-94, 5-(2-ethoxypyridin-3-yl)-2-[(2R)-2-ethyl-4-{4-methyl-2-[(3S)-3-(methylamino)pyrrolidin-1-yl]benzoyl}piperazin-1-yl]-N-[(3R)-pyrrolidin-3-yl]benzamide] | > 8.00
CCOc1ncccc1-c1ccc(N2CCN(C(=O)c3ccc(Cl)cc3C(F)(F)F)C[C@H]2CC)c(C(=O)NCCNC)c1F [Compound 1-95, 6-[(2R)-4-[4-chloro-2-(trifluoromethyl)benzoyl]-2-ethylpiperazin-1-yl]-3-(2-ethoxypyridin-3-yl)-2-fluoro-N-[2-(methylamino)ethyl]benzamide] | > 8.00
